# Data: ChEMBL document CHEMBL3991601, “The target landscape of clinical kinase drugs” (Science, 2017)
# The source made the active and inactive calls.
# Biological target: Activin receptor type-2B (Homo sapiens, UniProt Q13705)
# Conditions: not given
# Further: in the data inactive means no Kd found up to 30 µM.
# Chain of Activin receptor type-2B (Q13705 whole entry): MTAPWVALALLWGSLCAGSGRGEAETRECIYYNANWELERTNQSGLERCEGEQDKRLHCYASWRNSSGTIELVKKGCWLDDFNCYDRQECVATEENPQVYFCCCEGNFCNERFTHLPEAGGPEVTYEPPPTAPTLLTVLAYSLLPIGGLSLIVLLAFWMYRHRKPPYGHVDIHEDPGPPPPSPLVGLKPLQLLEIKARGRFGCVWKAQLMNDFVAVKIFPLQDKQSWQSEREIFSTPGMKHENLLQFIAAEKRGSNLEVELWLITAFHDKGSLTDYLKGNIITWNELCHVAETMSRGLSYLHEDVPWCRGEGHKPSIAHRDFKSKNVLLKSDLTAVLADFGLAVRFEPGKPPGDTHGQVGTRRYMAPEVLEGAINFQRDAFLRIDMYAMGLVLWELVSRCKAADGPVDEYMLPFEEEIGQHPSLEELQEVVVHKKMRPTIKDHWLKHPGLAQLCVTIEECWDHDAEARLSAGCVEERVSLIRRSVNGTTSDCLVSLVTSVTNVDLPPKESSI
row,Structure (SMILES),Kd
1,O=C(O)[C@]1(Cc2cccc(Nc3nccs3)n2)CC[C@@H](Oc2cccc(Cl)c2F)CC1 [MK-5108],> 30 µM (inactive)
2,C1=C/COCc2cc(ccc2OCCN2CCCC2)Nc2nccc(n2)-c2cccc(c2)COC/1 [PACRITINIB],> 30 µM (inactive)
3,Cc1ccc(-n2nc(C(C)(C)C)cc2NC(=O)NCc2cc(F)ccc2Oc2ccc3c(cnn3CCO)c2)cc1 [PEXMETINIB],> 30 µM (inactive)

# Biological target: T1, Peroxisomal acyl-coenzyme A oxidase 3 (Homo sapiens, UniProt O15254)
# T1 sequence (O15254 whole entry): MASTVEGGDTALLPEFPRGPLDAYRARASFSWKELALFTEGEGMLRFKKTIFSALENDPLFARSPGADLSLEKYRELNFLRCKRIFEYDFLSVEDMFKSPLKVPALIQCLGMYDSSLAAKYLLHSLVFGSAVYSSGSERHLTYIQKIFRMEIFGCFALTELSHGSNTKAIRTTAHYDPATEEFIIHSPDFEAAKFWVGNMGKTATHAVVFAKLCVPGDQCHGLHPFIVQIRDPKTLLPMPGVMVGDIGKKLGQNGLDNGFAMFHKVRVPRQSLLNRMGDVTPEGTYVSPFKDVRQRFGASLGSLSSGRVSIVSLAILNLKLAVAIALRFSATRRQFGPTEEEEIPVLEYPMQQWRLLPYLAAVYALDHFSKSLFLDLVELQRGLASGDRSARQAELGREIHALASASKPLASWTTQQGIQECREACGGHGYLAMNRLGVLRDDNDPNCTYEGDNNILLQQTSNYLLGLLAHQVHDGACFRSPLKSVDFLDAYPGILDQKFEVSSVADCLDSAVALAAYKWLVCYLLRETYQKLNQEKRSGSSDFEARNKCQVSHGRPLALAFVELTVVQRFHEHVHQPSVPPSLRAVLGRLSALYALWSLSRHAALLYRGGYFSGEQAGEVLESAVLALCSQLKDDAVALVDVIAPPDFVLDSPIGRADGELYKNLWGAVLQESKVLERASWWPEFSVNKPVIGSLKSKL
# Conditions: not given
row,Structure (SMILES),Kd
1,O=C(O)[C@]1(Cc2cccc(Nc3nccs3)n2)CC[C@@H](Oc2cccc(Cl)c2F)CC1 [MK-5108],> 30 µM (inactive)
2,C1=C/COCc2cc(ccc2OCCN2CCCC2)Nc2nccc(n2)-c2cccc(c2)COC/1 [PACRITINIB],> 30 µM (inactive)
3,Cc1ccc(-n2nc(C(C)(C)C)cc2NC(=O)NCc2cc(F)ccc2Oc2ccc3c(cnn3CCO)c2)cc1 [PEXMETINIB],> 30 µM (inactive)

# Biological target: Tyrosine-protein kinase SYK (Homo sapiens, UniProt P43405)
# Conditions: not given
row,Structure (SMILES),Kd
1,O=C(O)[C@]1(Cc2cccc(Nc3nccs3)n2)CC[C@@H](Oc2cccc(Cl)c2F)CC1 [MK-5108],> 30 µM (inactive)
2,C1=C/COCc2cc(ccc2OCCN2CCCC2)Nc2nccc(n2)-c2cccc(c2)COC/1 [PACRITINIB],> 30 µM (inactive)
3,Cc1ccc(-n2nc(C(C)(C)C)cc2NC(=O)NCc2cc(F)ccc2Oc2ccc3c(cnn3CCO)c2)cc1 [PEXMETINIB],> 30 µM (inactive)

# Biological target: Serine/threonine-protein kinase MRCK beta (Homo sapiens, UniProt Q9Y5S2)
# Sequence (Q9Y5S2 whole entry): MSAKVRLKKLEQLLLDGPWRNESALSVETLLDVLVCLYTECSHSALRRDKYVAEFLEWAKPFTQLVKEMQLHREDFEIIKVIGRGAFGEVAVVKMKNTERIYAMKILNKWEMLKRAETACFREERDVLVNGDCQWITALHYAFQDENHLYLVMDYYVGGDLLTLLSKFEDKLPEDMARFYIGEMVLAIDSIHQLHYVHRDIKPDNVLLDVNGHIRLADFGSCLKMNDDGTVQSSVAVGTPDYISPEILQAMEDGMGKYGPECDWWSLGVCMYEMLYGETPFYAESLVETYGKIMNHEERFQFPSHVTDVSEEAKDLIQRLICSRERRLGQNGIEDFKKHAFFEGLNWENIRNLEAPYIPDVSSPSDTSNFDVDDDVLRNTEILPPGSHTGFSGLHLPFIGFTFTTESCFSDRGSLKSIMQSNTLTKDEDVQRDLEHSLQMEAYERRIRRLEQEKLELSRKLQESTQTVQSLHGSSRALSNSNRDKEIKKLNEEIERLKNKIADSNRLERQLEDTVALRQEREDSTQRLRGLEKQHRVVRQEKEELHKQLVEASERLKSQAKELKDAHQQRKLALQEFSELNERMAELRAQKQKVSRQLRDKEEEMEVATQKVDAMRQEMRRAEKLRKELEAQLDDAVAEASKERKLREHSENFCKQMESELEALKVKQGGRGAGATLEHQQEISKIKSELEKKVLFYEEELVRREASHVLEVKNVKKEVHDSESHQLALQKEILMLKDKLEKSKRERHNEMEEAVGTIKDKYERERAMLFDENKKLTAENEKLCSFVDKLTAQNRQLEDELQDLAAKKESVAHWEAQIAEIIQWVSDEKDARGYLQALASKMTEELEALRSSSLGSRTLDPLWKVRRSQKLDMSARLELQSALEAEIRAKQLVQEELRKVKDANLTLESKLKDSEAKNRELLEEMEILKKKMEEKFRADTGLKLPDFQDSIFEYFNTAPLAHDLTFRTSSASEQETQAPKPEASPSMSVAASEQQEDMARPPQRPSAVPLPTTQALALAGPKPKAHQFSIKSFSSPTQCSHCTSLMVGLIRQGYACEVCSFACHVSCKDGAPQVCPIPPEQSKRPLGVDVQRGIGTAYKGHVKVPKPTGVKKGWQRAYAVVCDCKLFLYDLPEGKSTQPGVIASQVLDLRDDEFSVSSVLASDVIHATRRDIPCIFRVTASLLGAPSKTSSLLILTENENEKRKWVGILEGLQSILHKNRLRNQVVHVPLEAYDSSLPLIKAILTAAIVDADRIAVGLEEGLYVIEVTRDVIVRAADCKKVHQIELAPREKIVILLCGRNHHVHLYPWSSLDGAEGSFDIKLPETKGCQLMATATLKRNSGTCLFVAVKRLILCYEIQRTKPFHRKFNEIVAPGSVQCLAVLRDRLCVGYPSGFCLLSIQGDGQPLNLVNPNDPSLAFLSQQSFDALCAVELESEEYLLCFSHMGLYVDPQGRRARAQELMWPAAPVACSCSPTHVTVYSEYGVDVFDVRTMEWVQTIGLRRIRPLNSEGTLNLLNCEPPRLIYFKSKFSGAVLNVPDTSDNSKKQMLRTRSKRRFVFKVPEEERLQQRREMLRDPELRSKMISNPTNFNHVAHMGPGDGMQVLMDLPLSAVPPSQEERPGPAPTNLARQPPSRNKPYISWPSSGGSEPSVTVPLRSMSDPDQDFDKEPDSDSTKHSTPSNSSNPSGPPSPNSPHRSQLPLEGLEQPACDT
# Conditions: not given
row,Structure (SMILES),Kd
1,O=C(O)[C@]1(Cc2cccc(Nc3nccs3)n2)CC[C@@H](Oc2cccc(Cl)c2F)CC1 [MK-5108],> 30 µM (inactive)
2,C1=C/COCc2cc(ccc2OCCN2CCCC2)Nc2nccc(n2)-c2cccc(c2)COC/1 [PACRITINIB],> 30 µM (inactive)
3,Cc1ccc(-n2nc(C(C)(C)C)cc2NC(=O)NCc2cc(F)ccc2Oc2ccc3c(cnn3CCO)c2)cc1 [PEXMETINIB],> 30 µM (inactive)

# Biological target: Cyclin-dependent kinase 4 (Homo sapiens, UniProt P11802)
# Sequence (P11802 whole entry): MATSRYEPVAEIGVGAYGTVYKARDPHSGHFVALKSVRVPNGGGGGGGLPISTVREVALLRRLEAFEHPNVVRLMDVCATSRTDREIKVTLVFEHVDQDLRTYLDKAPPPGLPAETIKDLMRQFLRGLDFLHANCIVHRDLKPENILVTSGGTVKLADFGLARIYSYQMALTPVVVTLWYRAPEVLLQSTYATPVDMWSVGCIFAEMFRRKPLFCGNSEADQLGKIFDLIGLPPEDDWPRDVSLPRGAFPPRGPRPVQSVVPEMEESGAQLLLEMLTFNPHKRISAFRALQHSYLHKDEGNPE
# Conditions: not given
row,Structure (SMILES),Kd
1,O=C(O)[C@]1(Cc2cccc(Nc3nccs3)n2)CC[C@@H](Oc2cccc(Cl)c2F)CC1 [MK-5108],> 30 µM (inactive)
2,C1=C/COCc2cc(ccc2OCCN2CCCC2)Nc2nccc(n2)-c2cccc(c2)COC/1 [PACRITINIB],> 30 µM (inactive)
3,Cc1ccc(-n2nc(C(C)(C)C)cc2NC(=O)NCc2cc(F)ccc2Oc2ccc3c(cnn3CCO)c2)cc1 [PEXMETINIB],> 30 µM (inactive)

# Biological target: T2, Glycogen phosphorylase, liver form (Homo sapiens, UniProt P06737)
# T2 sequence (P06737 whole entry): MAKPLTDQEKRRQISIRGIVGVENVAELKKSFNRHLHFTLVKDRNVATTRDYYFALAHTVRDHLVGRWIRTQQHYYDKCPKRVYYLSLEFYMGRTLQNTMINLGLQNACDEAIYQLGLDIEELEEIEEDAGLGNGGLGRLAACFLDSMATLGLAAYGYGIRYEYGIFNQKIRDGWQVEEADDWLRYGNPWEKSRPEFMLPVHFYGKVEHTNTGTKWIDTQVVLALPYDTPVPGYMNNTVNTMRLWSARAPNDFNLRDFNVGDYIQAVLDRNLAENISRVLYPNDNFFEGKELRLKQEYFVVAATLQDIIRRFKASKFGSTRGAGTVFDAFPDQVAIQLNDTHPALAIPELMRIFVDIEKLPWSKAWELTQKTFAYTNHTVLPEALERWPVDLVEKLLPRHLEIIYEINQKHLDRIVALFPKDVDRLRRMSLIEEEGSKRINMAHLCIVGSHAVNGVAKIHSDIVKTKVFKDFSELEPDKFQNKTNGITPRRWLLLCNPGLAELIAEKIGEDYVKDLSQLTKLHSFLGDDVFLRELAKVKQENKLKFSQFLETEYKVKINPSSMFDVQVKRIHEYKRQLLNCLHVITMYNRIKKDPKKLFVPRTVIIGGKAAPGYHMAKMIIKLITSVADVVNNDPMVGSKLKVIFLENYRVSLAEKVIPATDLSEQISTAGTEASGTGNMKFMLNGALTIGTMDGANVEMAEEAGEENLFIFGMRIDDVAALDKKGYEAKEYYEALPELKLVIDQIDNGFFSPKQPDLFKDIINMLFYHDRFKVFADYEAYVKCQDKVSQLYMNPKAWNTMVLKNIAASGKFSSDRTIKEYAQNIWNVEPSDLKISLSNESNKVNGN
# Type: subcellular, K-562, COLO 205, SK-N-BE(2) and MV-4-11, Cell lysate
# Conditions: read-out: Kd apparent
row,Structure (SMILES),Kd
1,O=C(O)[C@]1(Cc2cccc(Nc3nccs3)n2)CC[C@@H](Oc2cccc(Cl)c2F)CC1 [MK-5108],> 30 µM (inactive)
2,C1=C/COCc2cc(ccc2OCCN2CCCC2)Nc2nccc(n2)-c2cccc(c2)COC/1 [PACRITINIB],> 30 µM (inactive)
3,Cc1ccc(-n2nc(C(C)(C)C)cc2NC(=O)NCc2cc(F)ccc2Oc2ccc3c(cnn3CCO)c2)cc1 [PEXMETINIB],> 30 µM (inactive)

# Biological target: Mitogen-activated protein kinase 8 (Homo sapiens, UniProt P45983)
# Sequence (P45983 whole entry): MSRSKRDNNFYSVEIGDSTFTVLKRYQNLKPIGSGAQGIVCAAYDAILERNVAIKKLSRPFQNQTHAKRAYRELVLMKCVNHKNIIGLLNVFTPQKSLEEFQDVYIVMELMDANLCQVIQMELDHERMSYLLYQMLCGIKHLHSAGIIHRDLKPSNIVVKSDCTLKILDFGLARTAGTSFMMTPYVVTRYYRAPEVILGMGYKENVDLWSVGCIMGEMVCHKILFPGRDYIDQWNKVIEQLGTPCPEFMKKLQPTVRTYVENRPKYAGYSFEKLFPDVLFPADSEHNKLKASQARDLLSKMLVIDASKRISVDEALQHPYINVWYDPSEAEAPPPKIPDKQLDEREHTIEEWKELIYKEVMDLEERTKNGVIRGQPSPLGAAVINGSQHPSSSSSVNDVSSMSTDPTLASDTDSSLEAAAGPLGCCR
# Conditions: not given
row,Structure (SMILES),Kd
1,O=C(O)[C@]1(Cc2cccc(Nc3nccs3)n2)CC[C@@H](Oc2cccc(Cl)c2F)CC1 [MK-5108],1.15 µM (active)
2,C1=C/COCc2cc(ccc2OCCN2CCCC2)Nc2nccc(n2)-c2cccc(c2)COC/1 [PACRITINIB],1.96 µM (active)
3,Cc1ccc(-n2nc(C(C)(C)C)cc2NC(=O)NCc2cc(F)ccc2Oc2ccc3c(cnn3CCO)c2)cc1 [PEXMETINIB],> 30 µM (inactive)

# Biological target: T3, Delta(24)-sterol reductase (Homo sapiens, UniProt Q15392)
# T3 sequence (Q15392 whole entry): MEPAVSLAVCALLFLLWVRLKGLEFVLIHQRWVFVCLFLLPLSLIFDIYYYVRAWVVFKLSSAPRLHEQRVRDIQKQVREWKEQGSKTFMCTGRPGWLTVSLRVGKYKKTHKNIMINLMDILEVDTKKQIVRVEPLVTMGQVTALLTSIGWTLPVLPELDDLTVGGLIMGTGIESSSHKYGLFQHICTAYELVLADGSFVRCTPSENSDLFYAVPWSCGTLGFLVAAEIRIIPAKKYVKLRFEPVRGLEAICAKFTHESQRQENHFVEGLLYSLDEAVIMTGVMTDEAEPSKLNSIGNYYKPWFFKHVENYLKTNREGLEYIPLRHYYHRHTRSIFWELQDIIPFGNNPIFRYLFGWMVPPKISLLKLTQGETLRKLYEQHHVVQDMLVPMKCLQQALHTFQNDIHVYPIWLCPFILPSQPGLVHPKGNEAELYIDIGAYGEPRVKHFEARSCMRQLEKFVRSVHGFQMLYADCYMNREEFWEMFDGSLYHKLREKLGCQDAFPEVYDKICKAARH
# Conditions: not given
row,Structure (SMILES),Kd
1,O=C(O)[C@]1(Cc2cccc(Nc3nccs3)n2)CC[C@@H](Oc2cccc(Cl)c2F)CC1 [MK-5108],> 30 µM (inactive)
2,C1=C/COCc2cc(ccc2OCCN2CCCC2)Nc2nccc(n2)-c2cccc(c2)COC/1 [PACRITINIB],> 30 µM (inactive)
3,Cc1ccc(-n2nc(C(C)(C)C)cc2NC(=O)NCc2cc(F)ccc2Oc2ccc3c(cnn3CCO)c2)cc1 [PEXMETINIB],> 30 µM (inactive)

# Biological target: cAMP-dependent protein kinase catalytic subunit beta (Homo sapiens, UniProt P22694)
# Conditions: not given
row,Structure (SMILES),Kd
1,O=C(O)[C@]1(Cc2cccc(Nc3nccs3)n2)CC[C@@H](Oc2cccc(Cl)c2F)CC1 [MK-5108],> 30 µM (inactive)
2,C1=C/COCc2cc(ccc2OCCN2CCCC2)Nc2nccc(n2)-c2cccc(c2)COC/1 [PACRITINIB],> 30 µM (inactive)
3,Cc1ccc(-n2nc(C(C)(C)C)cc2NC(=O)NCc2cc(F)ccc2Oc2ccc3c(cnn3CCO)c2)cc1 [PEXMETINIB],> 30 µM (inactive)

# Biological target: Tyrosine-protein kinase Fyn (Homo sapiens, UniProt P06241)
# Sequence (P06241 whole entry): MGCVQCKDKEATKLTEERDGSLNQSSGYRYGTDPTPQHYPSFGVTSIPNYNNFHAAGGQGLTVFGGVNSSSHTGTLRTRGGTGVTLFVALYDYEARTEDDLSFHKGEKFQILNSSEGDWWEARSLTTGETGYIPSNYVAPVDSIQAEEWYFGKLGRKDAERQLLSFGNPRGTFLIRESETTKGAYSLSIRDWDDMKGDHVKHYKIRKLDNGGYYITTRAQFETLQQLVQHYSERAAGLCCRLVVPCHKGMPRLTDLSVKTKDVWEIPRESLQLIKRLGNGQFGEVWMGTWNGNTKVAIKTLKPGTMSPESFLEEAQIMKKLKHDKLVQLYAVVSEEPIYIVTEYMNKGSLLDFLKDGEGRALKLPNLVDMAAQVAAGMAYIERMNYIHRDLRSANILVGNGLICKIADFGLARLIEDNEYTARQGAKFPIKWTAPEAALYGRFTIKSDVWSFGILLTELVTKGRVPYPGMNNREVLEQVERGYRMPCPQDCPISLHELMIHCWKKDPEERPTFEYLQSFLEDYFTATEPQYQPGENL
# Conditions: not given
row,Structure (SMILES),Kd
1,O=C(O)[C@]1(Cc2cccc(Nc3nccs3)n2)CC[C@@H](Oc2cccc(Cl)c2F)CC1 [MK-5108],> 30 µM (inactive)
2,C1=C/COCc2cc(ccc2OCCN2CCCC2)Nc2nccc(n2)-c2cccc(c2)COC/1 [PACRITINIB],> 30 µM (inactive)
3,Cc1ccc(-n2nc(C(C)(C)C)cc2NC(=O)NCc2cc(F)ccc2Oc2ccc3c(cnn3CCO)c2)cc1 [PEXMETINIB],2.14 µM

# Biological target: T4, Succinate--CoA ligase [ADP-forming] subunit beta, mitochondrial (Homo sapiens, UniProt Q9P2R7)
# T4 sequence (Q9P2R7 whole entry): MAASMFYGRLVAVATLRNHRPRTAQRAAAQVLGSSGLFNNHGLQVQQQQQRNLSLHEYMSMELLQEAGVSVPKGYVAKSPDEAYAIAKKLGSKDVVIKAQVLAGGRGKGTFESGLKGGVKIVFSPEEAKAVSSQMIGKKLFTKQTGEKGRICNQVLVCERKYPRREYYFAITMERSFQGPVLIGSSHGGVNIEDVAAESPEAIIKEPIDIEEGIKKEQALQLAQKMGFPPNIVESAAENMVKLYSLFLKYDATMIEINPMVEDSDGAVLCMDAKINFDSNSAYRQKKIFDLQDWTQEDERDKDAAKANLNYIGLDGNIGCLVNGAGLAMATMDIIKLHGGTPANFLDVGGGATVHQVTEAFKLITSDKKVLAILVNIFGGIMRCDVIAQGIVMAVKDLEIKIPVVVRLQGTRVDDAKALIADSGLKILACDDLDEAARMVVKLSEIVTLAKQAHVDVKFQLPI
# Conditions: not given
row,Structure (SMILES),Kd
1,O=C(O)[C@]1(Cc2cccc(Nc3nccs3)n2)CC[C@@H](Oc2cccc(Cl)c2F)CC1 [MK-5108],> 30 µM (inactive)
2,C1=C/COCc2cc(ccc2OCCN2CCCC2)Nc2nccc(n2)-c2cccc(c2)COC/1 [PACRITINIB],> 30 µM (inactive)
3,Cc1ccc(-n2nc(C(C)(C)C)cc2NC(=O)NCc2cc(F)ccc2Oc2ccc3c(cnn3CCO)c2)cc1 [PEXMETINIB],> 30 µM (inactive)
